# Laboratory results as given in the supplement of paper PMC10307832.
# Tests used:
# Assay in all cases: relative viability (nuclei count vs DMSO), 5 days (fraction); higher = more cells survive
# Motesanib + Dasatinib = compound: CC1(C)CNc2cc(NC(=O)c3cccnc3NCc3ccncc3)ccc21 [Motesanib] + Cc1nc(Nc2ncc(C(=O)Nc3c(C)cccc3Cl)s2)cc(N2CCN(CCO)CC2)n1 [Dasatinib] (partner 0.075 µM)
# Method in brief: (§1)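 Lung cancer cell lines were seeded in 1536-well plates and dosed by pin tool the next day, with either a single drug or a fixed anchor-drug dose combined with five library-drug doses (not always all listed) spaced in √10 steps. Five days later, one step fixed the cells and stained their nuclei (final 0.05% Triton X-100, 1% formaldehyde, 1 ug/ml Hoechst), and nuclei were counted on 4× images. Relative viability is the nuclei count in treated wells divided by the count in vehicle wells, and each value is the median of duplicate plates.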
# Motesanib + Decitabine = compound: CC1(C)CNc2cc(NC(=O)c3cccnc3NCc3ccncc3)ccc21 [Motesanib] + Nc1ncn([C@H]2C[C@H](O)[C@@H](CO)O2)c(=O)n1 [Decitabine] (partner 2 µM)
# Method in brief: as §1
# Motesanib + Palbociclib = compound: CC1(C)CNc2cc(NC(=O)c3cccnc3NCc3ccncc3)ccc21 [Motesanib] + CC(=O)c1c(C)c2cnc(Nc3ccc(N4CCNCC4)cn3)nc2n(C2CCCC2)c1=O [Palbociclib] (partner 0.5 µM)
# Method in brief: as §1
# [1] = compound: C[C@@]1(C(=O)Nc2ccc(F)nc2)CCCN1c1nc(Nc2cc(C3CC3)n[nH]2)c2cccn2n1 + Cc1nc(NC(=O)N2CCC[C@H]2C(N)=O)sc1-c1ccnc(C(C)(C)C(F)(F)F)c1 [Alpelisib] (partner 2 µM)
# Method in brief: as §1
cell line,measurement,setting,value
UMC-11,relative viability,Motesanib + Dasatinib; first compound 0.01 µM,0.435
same,relative viability,Motesanib + Dasatinib; first compound 0.03162 µM,0.447
same,relative viability,Motesanib + Dasatinib; first compound 0.1 µM,0.489
same,relative viability,Motesanib + Dasatinib; first compound 0.3162 µM,0.477
same,relative viability,Motesanib + Dasatinib; first compound 1 µM,0.471
same,relative viability,Motesanib + Decitabine; first compound 0.01 µM,0.611
same,relative viability,Motesanib + Decitabine; first compound 0.03162 µM,0.677
same,relative viability,Motesanib + Decitabine; first compound 0.1 µM,0.331
same,relative viability,Motesanib + Decitabine; first compound 0.3162 µM,0.653
same,relative viability,Motesanib + Decitabine; first compound 1 µM,0.724
same,relative viability,Motesanib + Palbociclib; first compound 0.01 µM,0.317
same,relative viability,Motesanib + Palbociclib; first compound 0.03162 µM,0.302
same,relative viability,Motesanib + Palbociclib; first compound 0.1 µM,0.314
same,relative viability,Motesanib + Palbociclib; first compound 0.3162 µM,0.394
same,relative viability,Motesanib + Palbociclib; first compound 1 µM,0.347
same,relative viability,[1]; first compound 0.04 µM,0.955
same,relative viability,[1]; first compound 0.1265 µM,1.1
same,relative viability,[1]; first compound 0.4 µM,1.01
same,relative viability,[1]; first compound 1.265 µM,1.1
